Columns and labels:
Format in all cases: cell-based, human
HTT mRNA = test: Splicing RT-qPCR gene panel, HTT canonical junction (CJ) mRNA; conditions: Homo sapiens, Tables 4A/4B, read-out: HTT (IC50, decrease in CJ mRNA, gene panel)
Procedure, shortened: (§1)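 Read-out: RT-qPCR of the canonical exon-exon junction transcript, ΔCt vs housekeeping gene, normalized to DMSO, RQ = 2^(−ΔΔCt), converted to percentage response. Cells, A673 or K562, were dosed 24 h at 37 °C across 11 3-fold dilutions from 10 uM.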

SMN2 mRNA = test: Splicing RT-qPCR gene panel, SMN2 canonical junction (CJ) mRNA; conditions: Homo sapiens, Tables 4A/4B, read-out: SMN2 (IC50, decrease in CJ mRNA, gene panel)
Procedure, shortened: as §1

Target C mRNA = test: Splicing RT-qPCR gene panel, Target C canonical junction (CJ) mRNA; conditions: Homo sapiens, Tables 4A/4B, read-out: Target C (IC50, decrease in CJ mRNA, gene panel)
Procedure, shortened: as §1

SMILES | IC50 (HTT mRNA) [nM] | IC50 (SMN2 mRNA) [nM] | IC50 (Target C mRNA) [nM]
Cc1cn2nc(NC(=O)c3ccc(C4CCNCC4)c4cc(C)oc34)cc(C)c2n1 [Compound 118] | 1000 to 10000 | 100 to 1000 | > 10000
Cc1cn2nc(NC(=O)c3ccc(C4CCNCC4)c4ccoc34)cc(C)c2n1 [Compound 119] | 1000 to 10000 | 100 to 1000 | > 10000
Cc1cn2cc(NC(=O)c3ccc(N4CCNCC4)c4nc(C)oc34)cc(F)c2n1 [Compound 140] | 1000 to 10000 | 100 to 1000 | 1000 to 10000
Cc1cn2cc(NC(=O)c3ccc(N4CCNCC4)c4oc(C)nc34)cc(F)c2n1 [Compound 141] | < 100 | < 100 | 100 to 1000
Cc1cn2cc(NC(=O)c3ccc(N4CCNCC4)c4cc(C)oc34)cc(F)c2n1 [Compound 142] | 1000 to 10000 | < 100 | 100 to 1000
Cc1cn2cc(NC(=O)c3ccc(N4CCNCC4)c4cn(C)nc34)cc(F)c2n1 [Compound 143, N-{8-fluoro-2-methylimidazo[1,2-a]pyridin-6-yl}-2-methyl-4-(piperazin-1-yl) indazole-7-carboxamide] | < 100 | < 100 | 100 to 1000
Cc1cn2cc(NC(=O)c3ccc(C4CCNCC4)c4cc(C)oc34)cc(F)c2n1 [Compound 145] | 1000 to 10000 | < 100 | 100 to 1000
Cc1cn2nc(NC(=O)c3ccc(N4CCNCC4)c4cc(C)oc34)cc(C)c2n1 [Compound 148] | 1000 to 10000 | 100 to 1000 | 1000 to 10000
Cc1cn2cc(NC(=O)c3ccc(C4CCNCC4)c4ccoc34)cc(F)c2n1 [Compound 149] | 1000 to 10000 | < 100 | > 10000
Cc1cn2cc(NC(=O)c3ccc(N4CCN(C)CC4)c4cc(C)oc34)cc(F)c2n1 [Compound 189] | 1000 to 10000 | < 100 | 1000 to 10000
Cc1cn2cc(NC(=O)c3ccc(N4CCNC(C)C4)c4cc(C)oc34)cc(F)c2n1 (stereo not drawn) [Compound 190] | 100 to 1000 | 100 to 1000 | 1000 to 10000
Cc1cn2cc(NC(=O)c3ccc(N4CCN(C)C(C)C4)c4cc(C)oc34)cc(F)c2n1 (stereo not drawn) [Compound 191] | 100 to 1000 | < 100 | 1000 to 10000
CCC1CN(c2ccc(C(=O)Nc3cc(F)c4nc(C)cn4c3)c3oc(C)cc23)CCN1 (stereo not drawn) [Compound 192] | 1000 to 10000 | < 100 | 1000 to 10000
Cc1cn2cc(NC(=O)c3ccc(N4CCNC(C)(C)C4)c4cc(C)oc34)cc(F)c2n1 [Compound 193] | 1000 to 10000 | < 100 | > 10000
Cc1cn2cc(NC(=O)c3ccc(N4CCNC5(CC5)C4)c4cc(C)oc34)cc(F)c2n1 [Compound 194] | 1000 to 10000 | < 100 | > 10000
Cc1cn2cc(NC(=O)c3ccc(N4CC(C)(C)NC(C)(C)C4)c4cc(C)oc34)cc(F)c2n1 [Compound 195] | > 10000 | < 100 | > 10000
CCNC1CCN(c2ccc(C(=O)Nc3cc(F)c4nc(C)cn4c3)c3oc(C)cc23)CC1 [Compound 196] | 1000 to 10000 | < 100 | 1000 to 10000
Cc1cn2cc(NC(=O)c3ccc(N4CCC(NC(C)(C)C)CC4)c4cc(C)oc34)cc(F)c2n1 [Compound 197] | > 10000 | 100 to 1000 | > 10000
CC1=CC2C(N3CCC(N(C)C)CC3)=CC=C(C(=O)Nc3cc(F)c4nc(C)cn4c3)C2O1 (stereo not drawn) [Compound 198] | 1000 to 10000 | < 100 | 1000 to 10000
Cc1cn2cc(NC(=O)c3ccc(N4CCN5CCCC5C4)c4cc(C)oc34)cc(F)c2n1 (stereo not drawn) [Compound 199] | 100 to 1000 | < 100 | 1000 to 10000
Cc1cn2cc(NC(=O)c3ccc(C4CCNCC4)c4cn(C)nc34)cc(F)c2n1 [Compound 208] | 100 to 1000 | < 100 | 100 to 1000
Cc1cc2c(N3CCNCC3)ccc(C(=O)Nc3cc(F)c4cn(C)nc4c3)c2o1 [Compound 217] | > 10000 | 1000 to 10000 | > 10000
